The values that follow come from patent US10758534B2 (Vertex Pharmaceuticals Incorporated, priority 2014, dated 2020).

For this assay, the target named is T1, F508del (Homo sapiens, UniProt P13569, DEL508-508).
T1 construct: expressed in transfected cells
T1 sequence (P13569 with tags, fused parts or gaps DEL508-508): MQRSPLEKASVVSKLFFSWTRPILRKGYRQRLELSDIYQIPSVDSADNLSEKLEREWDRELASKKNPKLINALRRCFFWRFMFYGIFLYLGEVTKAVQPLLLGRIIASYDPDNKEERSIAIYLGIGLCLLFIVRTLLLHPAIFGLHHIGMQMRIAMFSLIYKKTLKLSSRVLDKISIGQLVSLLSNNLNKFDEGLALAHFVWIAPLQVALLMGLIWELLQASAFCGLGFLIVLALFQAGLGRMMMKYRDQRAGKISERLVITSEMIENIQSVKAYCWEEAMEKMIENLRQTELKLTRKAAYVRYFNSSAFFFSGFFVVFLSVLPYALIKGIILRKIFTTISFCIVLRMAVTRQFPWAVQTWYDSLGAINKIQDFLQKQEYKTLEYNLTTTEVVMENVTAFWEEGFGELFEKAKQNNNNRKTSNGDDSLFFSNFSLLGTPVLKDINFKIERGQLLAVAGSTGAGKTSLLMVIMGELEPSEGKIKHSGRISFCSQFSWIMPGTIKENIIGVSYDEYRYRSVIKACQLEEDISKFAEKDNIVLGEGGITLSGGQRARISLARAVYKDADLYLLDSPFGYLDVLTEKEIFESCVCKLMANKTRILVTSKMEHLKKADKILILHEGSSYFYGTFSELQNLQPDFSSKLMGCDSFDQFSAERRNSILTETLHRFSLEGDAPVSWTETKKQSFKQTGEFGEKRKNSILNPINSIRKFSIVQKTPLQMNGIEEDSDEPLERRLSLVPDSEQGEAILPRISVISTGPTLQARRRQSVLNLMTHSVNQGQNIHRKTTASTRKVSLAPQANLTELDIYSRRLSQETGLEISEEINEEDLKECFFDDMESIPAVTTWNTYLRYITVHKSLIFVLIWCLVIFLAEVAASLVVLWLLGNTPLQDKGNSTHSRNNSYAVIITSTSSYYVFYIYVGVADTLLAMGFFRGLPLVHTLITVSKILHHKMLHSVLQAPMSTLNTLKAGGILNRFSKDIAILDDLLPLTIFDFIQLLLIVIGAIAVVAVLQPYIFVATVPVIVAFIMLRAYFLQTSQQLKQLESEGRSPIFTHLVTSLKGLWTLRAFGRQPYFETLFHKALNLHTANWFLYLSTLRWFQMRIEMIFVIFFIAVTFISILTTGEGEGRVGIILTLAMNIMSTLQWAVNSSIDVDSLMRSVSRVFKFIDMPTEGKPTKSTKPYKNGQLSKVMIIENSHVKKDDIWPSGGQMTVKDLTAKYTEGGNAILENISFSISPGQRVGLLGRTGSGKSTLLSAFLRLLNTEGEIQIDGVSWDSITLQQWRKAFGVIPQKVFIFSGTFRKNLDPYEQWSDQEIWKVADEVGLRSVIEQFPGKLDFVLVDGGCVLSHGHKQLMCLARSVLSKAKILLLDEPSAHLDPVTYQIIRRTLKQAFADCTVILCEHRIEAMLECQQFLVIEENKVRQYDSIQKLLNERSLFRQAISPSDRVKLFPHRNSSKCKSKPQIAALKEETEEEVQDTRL
Kind of assay: Protocol 1: membrane potential optical assay (FLIPR III, voltage sensing dye), identification of potentiator compounds. The class given is cell-based. The note with it: Table 3, compounds of Table 1. In a few lines:
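NIH3T3 F508del cells, 27° C × 24 hrs; compound/DMSO pretreat → redistribution dye load → single forskolin addition with Cl⁻ gradient (gluconate-substituted bath, HEPES pH 7.4). FLIPR III membrane-potential fluorescence read.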
Turning to `COCC1CCCN(c2cccc(S(=O)(=O)NC(=O)c3cccnc3N3CC(C)CC3(C)C)n2)C1` (stereo not shown) [Compound 1805, N—[[6-[3-(methoxymethyl)-1-piperidyl]-2-pyridyl]sulfonyl]-2-(2,2,4-trimethylpyrrolidin-1-yl)pyridine-3-carboxamide], the EC30 result was “++ (“++” means between 3 uM and 10 uM)”. Next, `CC(C)COc1cc(F)cc(-c2ccc(C(=O)NS(=O)(=O)c3cccc(O)c3)c(N3C[C@@H](C)CC3(C)C)n2)c1` [Compound 1885, 6-(3-fluoro-5-isobutoxy-phenyl)-N-(3-hydroxyphenyl)sulfonyl-2-[(4S)-2,2,4-trimethylpyrrolidin-1-yl]pyridine-3-carboxamide]: “+++ (“+++” means <3 uM)”; `CCOCCOCCOc1ncc(-c2ccc(C(=O)NS(=O)(=O)c3cccc(N)n3)c(N3C[C@@H](C)CC3(C)C)n2)cc1C` [Compound 1715, N-[(6-amino-2-pyridyl)sulfonyl]-6-[6-[2-(2-ethoxyethoxy)ethoxy]-5-methyl-3-pyridyl]-2-[(4S)-2,2,4-trimethylpyrrolidin-1-yl]pyridine-3-carboxamide]: “+++ (“+++” means <3 uM)”. Next, `CC(C)COc1cc(F)cc(-c2ccc(C(=O)NS(=O)(=O)c3nc(N)cs3)c(N3CC(C)CC3(C)C)n2)c1` (stereo not shown) [Compound 842, N-(4-aminothiazol-2-yl)sulfonyl-6-(3-fluoro-5-isobutoxy-phenyl)-2-(2,2,4-trimethylpyrrolidin-1-yl)pyridine-3-carboxamide]: “+++ (“+++” means <3 uM)”; `Cc1cc(C)c(Oc2nc(-c3cccc(OC(C)C)c3)ccc2C(=O)NS(=O)(=O)c2ccc[nH]c2=O)c(C)c1` [Compound 1188, 6-(3-isopropoxyphenyl)-N-[(2-oxo-1H-pyridin-3-yl)sulfonyl]-2-(2,4,6-trimethylphenoxy)pyridine-3-carboxamide]: “+++ (“+++” means <3 uM)”; `CC(C)COc1cc(F)cc(-c2ccc(C(=O)NS(=O)(=O)c3cccc(N)n3)c(N3C[C@H](C)CC34CCC4)n2)c1` [Compound 1737]: “+++ (“+++” means <3 uM)”. The result for `CC(C)COc1cc(F)cc(-c2ccc(C(=O)NS(=O)(=O)c3cccc(N)n3)c(N3CC4C5CCC(C5)C43)n2)c1` (stereo not shown) [Compound 1821, N-[(6-amino-2-pyridyl)sulfonyl]-6-(3-fluoro-5-isobutoxy-phenyl)-2-BLAHyl-pyridine-3-carboxamide] reads “+++ (“+++” means <3 uM)”; that for `CC(C)COc1cc(F)cc(-c2ccc(C(=O)NS(=O)(=O)c3cccc(N)n3)c(OCCc3ccccn3)n2)c1` [Compound 1625, N-[(6-amino-2-pyridyl)sulfonyl]-6-(3-fluoro-5-isobutoxy-phenyl)-2-[2-(2-pyridyl)ethoxy]pyridine-3-carboxamide], “++ (“++” means between 3 uM and 10 uM)”. As to `COc1ncc(-c2ccc(C(=O)NS(=O)(=O)c3nccnc3N)c(Oc3ccc(C)cc3C)n2)cc1C` [Compound 893, N-(3-aminopyrazin-2-yl)sulfonyl-2-(2,4-dimethylphenoxy)-6-(6-methoxy-5-methyl-3-pyridyl)pyridine-3-carboxamide], the EC30 result was “+++ (“+++” means <3 uM)”. Take `CC(C)Oc1ccc(-c2ccc(C(=O)NS(=O)(=O)c3cccc(N)n3)c(N3CCC(C(F)(F)F)CC3)n2)cn1` [Compound 1043, N-[(6-amino-2-pyridyl)sulfonyl]-6-(6-isopropoxy-3-pyridyl)-2-[4-(trifluoromethyl)-1-piperidyl]pyridine-3-carboxamide]: the EC30 result is on record as “+++ (“+++” means <3 uM)”.

Take `COc1ccc(-c2ccc(C(=O)NS(=O)(=O)c3cccc(N)n3)c(Oc3c(C)cc(C)cc3C)n2)c(C)n1` [Compound 1212, N-[(6-amino-2-pyridyl)sulfonyl]-6-(6-methoxy-2-methyl-3-pyridyl)-2-(2,4,6-trimethylphenoxy)pyridine-3-carboxamide]: the EC30 result is “+++ (“+++” means <3 uM)”. Next, `CCC1CCC(c2ccc(C(=O)NS(=O)(=O)c3cccc(N)n3)c(Oc3c(C)cc(C)cc3C)n2)CC1` (stereo not shown) [Compound 1475, N-[(6-amino-2-pyridyl)sulfonyl]-6-(4-ethylcyclohexyl)-2-(2,4,6-trimethylphenoxy)pyridine-3-carboxamide]: “+++ (“+++” means <3 uM)”; `Cc1ccc(-c2nc(C(C)(C)C)ccc2C(=O)NS(=O)(=O)c2ccccc2O)cc1` [Compound 1175, 6-tert-butyl-N-(2-hydroxyphenyl)sulfonyl-2-(p-tolyl)pyridine-3-carboxamide]: “+++ (“+++” means <3 uM)”; `Cc1ccc(-c2nc(-c3cc(F)cc(OC(C)C)c3)ccc2C(=O)NS(=O)(=O)c2ccn[nH]2)cc1` [Compound 849, 6-(3-fluoro-5-isopropoxy-phenyl)-2-(p-tolyl)-N-(1H-pyrazol-5-ylsulfonyl)pyridine-3-carboxamide]: “+ (“+” means greater than 10 uM)”.

As to `C[C@@H]1CC[C@H](C)N1c1nc(-c2ccc(OC(F)F)nc2)ccc1C(=O)NS(=O)(=O)c1cccc(N)n1` [Compound 1679, N-[(6-amino-2-pyridyl)sulfonyl]-6-[6-(difluoromethoxy)-3-pyridyl]-2-[(2S,5R)-2,5-dimethylpyrrolidin-1-yl]pyridine-3-carboxamide], the EC30 result is given as “+++ (“+++” means <3 uM)”. Next, `CC(C)COc1cc(F)cc(-c2nc(N3C[C@@H](C)CC3(C)C)c(C(=O)NS(=O)(=O)c3cccc(N)n3)cc2Cl)c1` [Compound 1641, N-[(6-amino-2-pyridyl)sulfonyl]-5-chloro-6-(3-fluoro-5-isobutoxy-phenyl)-2-[(4S)-2,2,4-trimethylpyrrolidin-1-yl]pyridine-3-carboxamide]: “+++ (“+++” means <3 uM)”.

For `Cc1cccc(C)c1Cn1nc(-c2coc3ccccc3c2=O)cc1C(=O)NS(=O)(=O)c1ccccc1` [Compound 1501, N-(benzenesulfonyl)-2-[(2,6-dimethylphenyl)methyl]-5-(4-oxochromen-3-yl)pyrazole-3-carboxamide], the EC30 result is “+++ (“+++” means <3 uM)”. With `CC(C)COc1cc(F)cc(-c2ccc(C(=O)NS(=O)(=O)c3cccc(N)n3)c(N3CCC[C@H]3c3ccccc3)n2)c1` [Compound 1260, N-[(6-amino-2-pyridyl)sulfonyl]-6-(3-fluoro-5-isobutoxy-phenyl)-2-[(2S)-2-phenylpyrrolidin-1-yl]pyridine-3-carboxamide], the EC30 entry is “+++ (“+++” means <3 uM)”. The result for `Cc1cc(C)c(Oc2nc(N3CCOCC3)ccc2C(=O)NS(=O)(=O)c2cccc(N)n2)c(C)c1` [Compound 966, N-[(6-amino-2-pyridyl)sulfonyl]-6-morpholino-2-(2,4,6-trimethylphenoxy)pyridine-3-carboxamide] reads “+ (“+” means greater than 10 uM)”; that for `COc1cccc(-c2ccc(C(=O)NS(=O)(=O)c3ccc[nH]c3=O)c(N3C[C@@H](C)CC3(C)C)n2)c1` [Compound 1927, 6-(3-methoxyphenyl)-N-[(2-oxo-1H-pyridin-3-yl)sulfonyl]-2-[(4S)-2,2,4-trimethylpyrrolidin-1-yl]pyridine-3-carboxamide], “+++ (“+++” means <3 uM)”; that for `CC1CN(c2ncccc2C(=O)NS(=O)(=O)c2cccc(OCc3ccc(F)cc3Cl)n2)C(C)(C)C1` (stereo not shown) [Compound 1899, N—[[6-[(2-chloro-4-fluoro-phenyl)methoxy]-2-pyridyl]sulfonyl]-2-(2,2,4-trimethylpyrrolidin-1-yl)pyridine-3-carboxamide], “+++ (“+++” means <3 uM)”. The result for `COc1ccc(-c2ccc(C(=O)NS(=O)(=O)c3ccc[nH]c3=O)c(N3C[C@@H](C)CC3(C)C)n2)c(OC)n1` [Compound 1853, 6-(2,6-dimethoxy-3-pyridyl)-N-[(2-oxo-1H-pyridin-3-yl)sulfonyl]-2-[(4S)-2,2,4-trimethylpyrrolidin-1-yl]pyridine-3-carboxamide] reads “++ (“++” means between 3 uM and 10 uM)”. Turning to `CCCCOc1cccc(-c2ccc(C(=O)NS(=O)(=O)c3ccc[nH]c3=O)c(Oc3c(C)cc(C)cc3C)n2)c1Cl` [Compound 964, 6-(3-butoxy-2-chloro-phenyl)-N-[(2-oxo-1H-pyridin-3-yl)sulfonyl]-2-(2,4,6-trimethylphenoxy)pyridine-3-carboxamide], the EC30 result is “+++ (“+++” means <3 uM)”. The result for `C[C@@H]1CN(c2nc(-c3cc(F)cc(OCC(C)(C)O)c3)ccc2C(=O)NS(=O)(=O)c2cccc(N)n2)C(C)(C)C1` [Compound 1424, N-[(6-amino-2-pyridyl)sulfonyl]-6-[3-fluoro-5-(2-hydroxy-2-methyl-propoxy)phenyl]-2-[(4S)-2,2,4-trimethylpyrrolidin-1-yl]pyridine-3-carboxamide] reads “+++ (“+++” means <3 uM)”; that for `C[C@@H]1CN(c2nc(C(C)(C)C)c(/C=C/C3CCCC3)cc2C(=O)NS(=O)(=O)c2cccc(N)n2)C(C)(C)C1` [Compound 1633, N-[(6-amino-2-pyridyl)sulfonyl]-6-tert-butyl-5-[(E)-2-cyclopentylvinyl]-2-[(4S)-2,2,4-trimethylpyrrolidin-1-yl]pyridine-3-carboxamide], “+++ (“+++” means <3 uM)”.

Consider `CCC1CCN(c2nc(-c3cc(F)cc(OCC(C)C)c3)ccc2C(=O)NS(=O)(=O)c2ccn[nH]2)CC1` [Compound 1030, 2-(4-ethyl-1-piperidyl)-6-(3-fluoro-5-isobutoxy-phenyl)-N-(1H-pyrazol-5-ylsulfonyl)pyridine-3-carboxamide], for which the EC30 result was “+++ (“+++” means <3 uM)”.

For the compound `CC(C)COc1ccc(-c2ccc(C(=O)NS(=O)(=O)c3ccc[nH]c3=O)c(N3[C@H](C)CC[C@@H]3C)n2)cc1` [Compound 891, 2-[(2S,5R)-2,5-dimethylpyrrolidin-1-yl]-6-(4-isobutoxyphenyl)-N-[(2-oxo-1H-pyridin-3-yl)sulfonyl]pyridine-3-carboxamide], the EC30 result is on record as “+++ (“+++” means <3 uM)”.

Consider `CCOc1cc(-c2ccc(C(=O)NS(=O)(=O)c3cccc(N)n3)c(Oc3c(C)cc(C)cc3C)n2)ccc1OC` [Compound 860, N-[(6-amino-2-pyridyl)sulfonyl]-6-(3-ethoxy-4-methoxy-phenyl)-2-(2,4,6-trimethylphenoxy)pyridine-3-carboxamide], for which the EC30 result is “++ (“++” means between 3 uM and 10 uM)”.
